Like-named read-outs stand apart in the source and are kept apart here.
Experiments:
[1] = test system: RSV (recRSV A2-L19F and clinical RSV isolates); test: microbe, parasite or virus in culture; format: cell-based; details: human respiratory syncytial virus, HEp-2, read-out: half-maximal effective concentrations (EC50 values)
measles virus (MeV) = test: Dose-response inhibition of recombinant mononegaviruses: MeV; format: cell-based
[2] = test system: human parainfluenza virus type 3 (HPIV3); test: Dose-response inhibition of recombinant mononegaviruses: HPIV3; format: cell-based
Sendai virus (SeV) = test: Dose-response inhibition of recombinant mononegaviruses: SeV; format: cell-based
[3] = test system: vesicular stomatitis virus (VSV); format: cell-based
rabies virus (RabV) = format: cell-based
SARS-CoV-2 = test: microbe, parasite or virus in culture; format: cell-based; details: Severe acute respiratory syndrome coronavirus 2
RSV RdRP complex = RSV RdRP complex (Human respiratory syncytial virus A, UniProt P28887); format: cell-based
[4] = test system: paramyxovirus RdRP complex; format: cell-based, MeV, HPIV-3
[5] = biological target: RdRP activity of Nipah virus (NiV) (Nipah virus, UniProt Q997F0); format: cell-based
recRSV-A2-L19F = format: in vivo, BALB/cJ mice
SARS-CoV-2 WA1 isolate = test: Virus yield reduction of SARS-CoV-2 WA1 shed apically from ALI HAE organoids; format: cell-based
From the text: To test activity against SARS-CoV-2 in the human airway organoids, we first confirmed that the WA1 isolate replicated efficiently in HAEs of all donors tested (Fig. 5, A to C, and fig. S15).
Fig. 5. Efficacy of 4′-FlU against SARS-CoV-2 replication in HAE organoids. (A) Multicycle growth curve of SARS-CoV-2 WA1 isolate on ALI HAE from two donors. Shed virus was harvested daily and titered by plaque assay (n = 3). (B and C) Confocal microscopy of ALI HAE cells from “F1” donor mock-infected (B) or infected (C) with SARS-CoV-2 WA1 isolate, at 3 days post-infection. SARS-CoV-2 infected cells, goblet cells, and nuclei were stained with anti-SARS-CoV-2 N immunostaining, anti-MUC5AC immunostaining, and Hoechst 34580, pseudo-colored in red, green, and blue, respectively. z-stacks of 35 μm slices (1 μm thick) with 63× objective with oil immersion. […] Rare ciliated cells positive for N are represented in (F).

[6] = test system: SARS-CoV-2 WA1 or VoC alpha, gamma, or delta; test: Ferret model of SARS-CoV-2 infection, oral treatment; format: in vivo
[7] = human, 20 μM
[8] = mouse, in vivo
[9] = ferret, in vivo, po
in vitro [10] = test: in vitro
in vitro [11] = details: human
[12] = Single oral dose pharmacokinetics in ferret plasma; details: in vivo
SDH-A = test: Quantitative immunocytochemistry on HAE cells, nuclear-encoded protein; details: read-out: IC50, steady-state level of nuclear-encoded SDH-A
COX-I = test: Quantitative immunocytochemistry on HAE cells, mitochondrial-encoded protein; details: read-out: IC50, steady-state level of mitochondrial-encoded COX-I
in vitro [13] = details: human; remark: listed apart in the source
[14] = test system: O=c1ccn(C2OC(F)(COP(=O)(O)OP(=O)(O)OP(=O)(O)O)C(O)C2O)c(=O)[nH]1; test: purified protein, by the assay type; details: other: Fig. 2D, Michaelis-Menten model
[15] = WA1, once-daily oral 20 mg/kg from 12 hours after infection, within 12 hours of treatment onset

## O=c1ccn([C@@H]2O[C@](F)(CO)[C@@H](O)[C@H]2O)c(=O)[nH]1 [4′-FlU, 4′-fluorouridine]
[1]
  EC50: 0.61 to 1.2 µM
Measles virus (MeV)
  active concentrations: submicromolar
[2]
  active concentrations: submicromolar
Sendai virus (SeV)
  active concentrations: submicromolar
[3]
  active concentrations: submicromolar
Rabies virus (RabV)
  active concentrations: submicromolar
SARS-CoV-2
  EC50: 0.2 to 0.6 µM
RSV RdRP complex
  RdRP complex activity in minireplicon: inhibited
[4]
  RdRP complex activity in minireplicon: inhibited
[5]
  RdRP activity in NiV minireplicon reporter assay: efficiently inhibited
recRSV-A2-L19F; mouse, in vivo
  bioluminescence intensity in lungs (IVIS): considerable reduction
  lung virus burden compared with vehicle-treated animals: statistically significant reduction
  lung virus load compared with vehicle-treated animals: statistically significant reduction
recRSV-A2-L19F; mouse, in vivo, po, 5 mg/kg
  reduction in lung virus load: nearly two orders of magnitude
recRSV-A2-L19F; requiring reduction of lung virus load of at least one order of magnitude
  therapeutic window (time of treatment start after infection): 24 h
recRSV-A2-L19F; versus once-daily oral dosing
  effect of twice-daily dosing regimen on efficacy: did not significantly enhance efficacy
SARS-CoV-2 WA1 isolate; 50 μM 4′-FlU
  SARS-CoV-2 nucleocapsid protein in epithelium by confocal microscopy: largely devoid
SARS-CoV-2 WA1 isolate; 50 μM basolateral 4′-FlU
  maximal effect size, reduction of apical virus shedding: approximately two orders of magnitude
[6]; VoC alpha, gamma, delta, 36 to 48 hours after onset of oral treatment
  virus burden in nasal lavages: below the level of detection
[6]; [15]
  reduction of virus burden in nasal lavages: approximately three orders of magnitude
  virus burden in nasal lavages: < 50 PFU/ml
[6]; all animals, 3 days post-infection
  time of treatment until shedding of infectious particles ceased completely: 2.5 days
[7]; 1 h
  intracellular level: 3.42 nmol/million cells
[8]
  effect on the hematopoietic system (blood analysis): no antiproliferative effect
[9]; 15 mg/kg
  overall exposure: 154 ± 27.6 µM·h
[9]; 50 mg/kg
  overall exposure: 413.1 ± 78.1 µM·h
In vitro [10]
  CC50: 250 µM
In vitro [11]
  CC50: 169 µM
[12]; 15 mg/kg
  Cmax: 34.8 µM
[12]; 50 mg/kg
  Cmax: 63.3 µM
SDH-A
  IC50: 273 µM
COX-I
  IC50: 147 µM

## O=c1ccn(C2OC(F)(COP(=O)(O)OP(=O)(O)OP(=O)(O)O)C(O)C2O)c(=O)[nH]1 (stereo not drawn) [4′-FlU-TP]
[7]; 4 h
  intracellular concentration at peak: 10.38 nmol/million cells
[7]; 24 h
  intracellular concentration at plateau: 1.31 nmol/million cells
In vitro [13]
  half-life at 20 μM: 9.7 h

## recombinant RSV RdRP complexes (L and P proteins) (Human respiratory syncytial virus A2)
[14]
  Km: 24.9 µM
